Key:
[1] = tested on: PV1 (poliovirus type 1 strain Sabin); assay: microbe, parasite or virus in culture; format: cell-based; settings: Enterovirus C, BGM
CVB3 (strain Nancy) = assay: Virus-cell-based antiviral assay (CPE reduction, MTS); parameters: species or system Coxsackievirus B3; settings: Enterovirus B, BGM cells
[2] = tested on: HRV02 (human rhinovirus type 2); assay: as above; settings: Human rhinovirus sp., HeLa H1 cells (footnote c), 35°C
[3] = tested on: ECHO11 (echovirus 11 strain Gregory); assay: as above; settings: Enterovirus B, BGM cells
[4] = tested on: PV3 (poliovirus type 3 strain Sabin); assay: microbe, parasite or virus in culture; format: cell-based; settings: Enterovirus C, BGM
CVA16 (strain G-10) = assay: Virus-cell-based antiviral assay (CPE reduction, MTS); parameters: species or system coxsackievirus A16; settings: Enterovirus A, HeLa H1 cells
[5] = tested on: HRV14 (human rhinovirus type 14); assay: as above; settings: Human rhinovirus sp., HeLa H1 cells (footnote c), 35°C
in vitro = settings: African green monkey
[6] = tested on: EV71-B2 (strain 11316 genogroup B2); assay: Virus-cell-based antiviral assay (CPE reduction, MTS); parameters: species or system enterovirus 71; settings: Enterovirus A; EV71 strain 11316 genogroup B2; RD cells
CVB4 (strain E2 Edwards) = assay: as above; settings: Enterovirus B, BGM cells
[7] = tested on: PV2 (poliovirus type 2 strain Sabin); assay: microbe, parasite or virus in culture; format: cell-based; settings: Enterovirus C, BGM
CVA9 (strain Bozek) = assay: Virus-cell-based antiviral assay (CPE reduction, MTS); parameters: species or system Coxsackie A9; settings: Enterovirus B, BGM cells
[8] = tested on: EV71-B5 (strain TW/96016/08 genogroup B5); assay: as above; parameters: species or system enterovirus 71; settings: Enterovirus A; EV71 strain TW/96016/08 genogroup B5; RD cells
CVA21 (strain Coe) = assay: as above; settings: BGM cells

Compound | EC50 [1] [µM] | EC50 (CVB3 (strain Nancy)) [µM] | EC50 [2] [µM] | EC50 [3] [µM] | EC50 [4] [µM] | EC50 (CVA16 (strain G-10)) [µM] | EC50 [5] [µM] | CC50 (in vitro) [µM] | EC50 [6] [µM] | EC50 (CVB4 (strain E2 Edwards)) [µM] | EC50 [7] [µM] | EC50 (CVA9 (strain Bozek)) [µM] | EC50 [8] [µM] | EC50 (CVA21 (strain Coe)) [µM]
CCON=Cc1ccc(OCCC(C)CCN2CCN(c3ccnc(C(N)=O)c3)C2=O)cc1 (stereo not shown) [ALD] | 3.5 ± 1.4 | 2.2 ± 0.2 | > 21 | 2.1 ± 0.5 | 0.184 ± 0.008 | 0.043 ± 0.008 | 0.843 ± 0.013 | 7 ± 1 | 0.031 ± 0.012 | > 7 | 0.075 ± 0.019 | 5.4 ± 1 | 0.082 ± 0.023 | 0.056 ± 0.04
CCON=Cc1ccc(OCCC(C)CCN2CCN(c3ccncc3)C2=O)cc1 (stereo not shown) [GPP3] | 0.2 | 3.7 ± 0.2 | 1 ± 0.7 | 0.5 ± 0.1 | 0.066 | 0.014 ± 0.004 | 1.5 ± 0.3 | 7 ± 2 | 0.00096 ± 0.0006 | > 7 | 0.006 | 1.5 ± 0.1 | 0.00093 ± 0.0003 | 0.016 ± 0.015

Reference: publication PMC4613828 (PLoS Pathogens, 2015)
